Among the data in ChEMBL document CHEMBL1134252, “Reaction of Lys-Tyr-Lys triad mimics with benzylpenicillin: insight into the role of Tyr150 in class C beta-lactamase” (Bioorg Med Chem Lett, 2001) are Time and pKa values, retold here.

The nature of series [1]: Time taken by compound for 10% decrease in benzyl-penicillin concentration. The class given is ADME.
Series [2] can be described thus: pKa1 value determined. The class given is physicochemical. The settings on record: read-out: pKa1.
A short description of series [3]: pKa2 value determined. The settings on record: read-out: pKa2. The class given is physicochemical.

In series [1], `Cc1cc(CN)c(O)c(CN)c1` showed a Time of 1.38 h. In addition, the values for the pKa in series [2] and in series [3] were 7 and 9.7, respectively.

On to `Cc1cc([C@@H](N)CO)c(O)c([C@@H](N)CO)c1`, for which the Time in series [1] came out at 3.6 h. Also, the pKa in series [2] is 6.3; in series [3] it was 9.

`Cc1ccc(O)c(CN)c1` gave a Time in series [1] of 8.25 h. In addition, in series [2], the pKa was 8.7.

`COc1c(CN)cc(C)cc1CN` displayed a Time in series [1] of 44.9 h. The pKa in series [2] is 8.5; in series [3] it was 10.2.

The compound `Cc1cc(CNCCO)c(O)c(CNCCO)c1` yielded a Time in series [1] of 2.45 h. Besides, the pKa in series [2] amounted to 6.4; in series [3], 9.7.
